Experiment [1] has as its target T1, mutant MGL (Homo sapiens, UniProt Q99685, L169S/L176S).
T1 sequence (Q99685 1-303 L169S/L176S): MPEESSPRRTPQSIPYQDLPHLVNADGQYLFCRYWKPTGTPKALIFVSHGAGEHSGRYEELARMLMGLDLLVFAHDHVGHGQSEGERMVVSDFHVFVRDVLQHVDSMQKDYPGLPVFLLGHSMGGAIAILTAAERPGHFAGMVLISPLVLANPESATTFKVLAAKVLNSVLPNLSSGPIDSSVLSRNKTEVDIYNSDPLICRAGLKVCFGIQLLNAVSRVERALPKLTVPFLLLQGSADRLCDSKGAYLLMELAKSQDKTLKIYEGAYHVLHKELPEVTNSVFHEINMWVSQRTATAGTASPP
The experiment in a line: MGL ThermoFluor assay - mutant. Format: binding.

Experiment [2] has as its target T2, purified wild type MGL (wt-MGLL 6H-11-313) (Homo sapiens, UniProt Q99685).
T2 sequence (Q99685 1-303): T1 sequence (Q99685 1-303 L169S/L176S) with S169L, S176L

Where [3] appears, read: ThermoFluor concentration-response, read-out: MGL mutant ThermoFluor Kd.
The mark [4] stands for this setting: ThermoFluor thermal stability binding assay, read-out: MGL mutant ThermoFluor Kd.
Where [5] appears, read: ThermoFluor, compound concentration measured by qNMR, read-out: MGL mutant ThermoFluor qKd (μM) (using qNMR conc.).
The mark [6] stands for this setting: ThermoFluor, compound concentration measured by qNMR, read-out: MGL mutant ThermoFluor qKd (using qNMR conc.).

Numbering of substitutions follows the chain as printed. Where two headings read alike, the source gives them in different places.

On to `O=C(c1ccc(Oc2cc(C(F)(F)F)ccn2)cc1)N1CC(N2CCN(C(=O)c3cscn3)CC2)C1` [Cpd 769], for which, in experiment [1] (setting [3]), the Kd is 2 µM. This compound returned an IC50 in experiment [2] of 0.725 µM.

As to `O=C(c1ccc(-c2cccc(C(F)(F)F)c2)cc1)N1CC(N2CCN(C(=O)c3nccs3)CC2)C1` [Cpd 237, 1-(1,3-Thiazol-2-ylcarbonyl)-4-(1-{[3′-(trifluoromethyl)biphenyl-4-yl]carbonyl}azetidin-3-yl)piperazine], in experiment [1] (setting [4]), the Kd amounted to 0.001 µM. For the same compound, in experiment [2], the IC50 was under 0.005 µM.

As to `Cc1c(C(=O)N2CC(N3CCN(C(=O)c4cscn4)CC3)C2)nn(-c2ccc(Cl)cc2Cl)c1-c1ccc(Cl)cc1` [Cpd 1198], the Kd in experiment [1] (setting [4]) was 0.03 µM. Further, the IC50 in experiment [2] was determined as 0.143 µM.

With `O=C(c1nccs1)N1CCN(C2CN(C(=O)c3cccc4nc(-c5ccco5)[nH]c34)C2)CC1` [Cpd 1252], the Kd in experiment [1] (setting [4]) worked out at 0.386 µM. In experiment [2], this compound gave an IC50 of 0.706 µM.

As to `O=C(c1nccs1)N1CCN(C2CN(C(=O)c3ccccc3NCc3ccccc3)C2)CC1` [Cpd 775], the Kd in experiment [1] (setting [4]) was found to be 0.333 µM. Moreover, in experiment [2], the IC50 turned out to be 0.862 µM.

With `COc1cncc(-c2ccc3cc(C(=O)N4CC(N5CCN(C(=O)c6nccs6)CC5)C4)[nH]c3c2)c1` [Cpd 1196], the Kd in experiment [1] (setting [5]) stood at 0.37 µM. This compound came in with an IC50 in experiment [2] of 0.123 µM.

As to `O=C(c1ccc(-n2cnc3ccccc32)cc1)N1CC(N2CCN(C(=O)c3cscn3)CC2)C1` [Cpd 1293], the Kd in experiment [1] (setting [3]) came out at 1.67 µM. The same compound had an IC50 in experiment [2] of 3.17 µM.

On to `O=C(c1ccc(Cl)nc1)c1c[nH]c2cc(C(=O)N3CC(N4CCN(C(=O)c5nccs5)CC4)C3)ccc12` [Cpd 949], for which the Kd in experiment [1] (setting [3]) was 0.178 µM. Also, 0.163 µM corresponded to half-maximal inhibition in experiment [2] (IC50).

Turning to `O=C(c1cnc(NCc2ccccc2)s1)N1CC(N2CCN(C(=O)c3nccs3)CC2)C1` [Cpd 795], the Kd in experiment [1] (setting [3]) came out at 1.1 µM. In experiment [2], half-maximal inhibition (IC50) was put at 1.5 µM.

For the compound `Cc1cc(-c2cccc(C(F)(F)F)c2)ccc1C(=O)N1CCN(C2CN(C(=O)c3nccs3)C2)CC1` [Cpd 1260], the Kd in experiment [1] (setting [3]) came to 0.221 µM. The same compound had an IC50 in experiment [2] of 0.862 µM.

Consider `O=C(c1ccc(-c2cccc(C(F)(F)F)c2)cc1)N1CC(N2CCN(C(=O)c3cc(Br)cs3)CC2)C1` [Cpd 1087], for which the Kd in experiment [1] (setting [5]) was 0.023 µM. In experiment [2], this compound yielded an IC50 of 0.009 µM.

Turning to `O=C(c1ccc2nc(-c3cccc(C(F)(F)F)c3)oc2c1)N1CC(N2CCN(C(=O)c3nccs3)CC2)C1` [Cpd 1158, 6-({3-[4-(1,3-Thiazol-2-ylcarbonyl)piperazin-1-yl]azetidin-1-yl}carbonyl)-2-[3-(trifluoromethyl)phenyl]-1,3-benzoxazole], in experiment [1] (setting [3]), the Kd was 0.008 µM. In addition, the IC50 in experiment [2] was 0.042 µM.

For the compound `COc1ccc2cc(C(=O)N3CC(N4CCN(C(=O)c5nccs5)CC4)C3)c(C)nc2c1` [Cpd 845], in experiment [1] (setting [6]), the Kd amounted to 1.62 µM. This compound also came in with an IC50 in experiment [2] of 6.42 µM.

`O=C(c1ccc(-c2ccc(C(F)(F)F)cc2)cc1)N1CC(N2CCN(C(=O)c3nccs3)CC2)C1` [Cpd 150, 1-(1,3-Thiazol-2-ylcarbonyl)-4-(1-{[4′-(trifluoromethyl)biphenyl-4-yl]carbonyl}azetidin-3-yl)piperazine]: the Kd in experiment [1] (setting [3]) came to 0.0033 µM. In addition, in experiment [2], the IC50 was under 0.005 µM.

Turning to `O=C(c1ccc2c(-c3ccccc3)c(-c3ccccc3)[nH]c2c1)N1CC(N2CCN(C(=O)c3nccs3)CC2)C1` [Cpd 1119], the Kd in experiment [1] (setting [6]) was determined as 0.02 µM. Moreover, in experiment [2], half-maximal inhibition (IC50) was put at 0.017 µM.

Regarding `Cc1nn(-c2ccc(Cl)c(Cl)c2)c(C)c1C(=O)N1CC(N2CCN(C(=O)c3nccs3)CC2)C1` [Cpd 1225], the Kd in experiment [1] (setting [3]) came out at 0.042 µM. For the same compound, it took 0.273 µM to reach half-maximal inhibition in experiment [2] (IC50).

For `O=C(c1nccs1)N1CCN(C2CN(C(=O)c3cn(Cc4ccccc4)c4ccccc34)C2)CC1` [Cpd 993], in experiment [1] (setting [3]), the Kd was 0.333 µM. In addition, 1.51 µM corresponded to half-maximal inhibition in experiment [2] (IC50).

Regarding `O=C(c1ccc(-n2cnc3ccccc32)cc1)N1CC(N2CCN(C(=O)c3nccs3)CC2)C1` [Cpd 1223], the Kd in experiment [1] (setting [3]) was determined as 0.111 µM. This compound showed an IC50 in experiment [2] of 0.267 µM.

In general, IC50 refers to the concentration that inhibits the measured activity by half. High values mean weaker potency, low ones greater potency.

The values are drawn from patent US8362000B2, “Azetidinyl diamides as monoacylglycerol lipase inhibitors” (Janssen Pharmaceutica NV, priority 2009, dated 2013).
